Data set [1] can be described thus: photophysical characterization (photo‐switching, thermal relaxation). The class given is physicochemical. The following applies: alternating irradiation at 365 and 465 nm; 25 µM solution in DMSO. Here is the method:
(§1) FIGURE 2 Development and characterization of the light‐activated vitamin D mimetic photo‐vitD (10). (a) Structure activity relationship of photo‐switchable VDR agonists 4–10. Compounds were tested in a cellular Gal4‐VDR hybrid reporter gene assay. Relative activation is normalized to the effect of 2 (1 µM) set as 100% activation. The (Z)‐states of the compounds were maintained with a Cell‐Disco [24] (370 nm). […] Data in agonist (EC50) and antagonist mode (IC50; vs. 0.3 µM 2) are shown for (E)‐ and (Z)‐10. The corresponding dose‐response curves are shown in (d). (b) Predicted binding mode of (E)‐7 (green) in the VDR ligand binding site (pdb ID 4g1d). […] (c) Predicted binding mode of (Z)‐10 (yellow) in the VDR ligand binding site. The altered regiochemistry conveys strong preference for the light‐induced (Z)‐configuration and the extended naphthoic acid motif enables a strong ionic contact to R302. (d) Dose‐response curves of (E)‐ (dark) and (Z)‐10 (370 nm) in the Gal4‐VDR reporter gene assay in agonist (top) and antagonist mode (bottom, with 0.3 µM calcitriol (2)). (Z)‐10 activated VDR; (E)‐10 and (Z)‐10 antagonized VDR activation by 0.3 µM calcitriol (2). (Z)‐10 was maintained with a Cell‐Disco [24] (370 nm). […] Absorbance was measured at 351 nm with a 25 µM solution in DMSO, one cycle is 30 sec. […] (E)/(Z) ratios were measured by NMR. […]

Data set [2] concerns the target T1, VDR (Homo sapiens, UniProt P11473).
T1 construct: -CMV-VDR-LBD coding for the hinge region and; expressed in transfected cells; host or cells: HEK293T
T1 sequence (P11473 127-423 limits assumed): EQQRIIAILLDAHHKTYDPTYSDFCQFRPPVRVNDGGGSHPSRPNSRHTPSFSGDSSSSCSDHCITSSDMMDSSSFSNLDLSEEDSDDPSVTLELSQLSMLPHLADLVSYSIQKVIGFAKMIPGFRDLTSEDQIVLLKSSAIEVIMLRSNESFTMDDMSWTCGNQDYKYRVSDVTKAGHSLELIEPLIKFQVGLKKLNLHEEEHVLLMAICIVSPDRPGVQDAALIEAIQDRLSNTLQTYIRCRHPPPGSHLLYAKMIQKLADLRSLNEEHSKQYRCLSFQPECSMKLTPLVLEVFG
The data set can be described thus: Gal4‐VDR hybrid reporter gene assay, antagonist mode (vs. 0.3 µM calcitriol (2)). The class given is cell-based. The following applies: dark‐adapted (E)‐state; vs. 0.3 µM 2 (calcitriol); read-out: VDR modulation dark (E): IC50 (antagonist mode). Here is the method:
as §1

On to `CCCc1cc(C(O)(CC)CC)ccc1-c1ccc(/N=N/c2ccc3cc(C(=O)O)ccc3c2)cc1C` [compound 10], for which, in data set [1], the “reversible switching between (E)‐ and (Z)‐states over multiple cycles” value is given as “no fatigue”. Besides, the IC50 – broadly, the concentration at which inhibition is half-maximal – in data set [2] is 600 ± 100 nM.

These data come from article PMC13360702, “An Agonist/Antagonist Photo‐Switchable Vitamin D Mimetic Enables Bidirectional Optical Control of VDR” (Angewandte Chemie (International Ed. in English), 2026).
